Assay results published in US7132547B2, “Preventives/remedies for urinary disturbance” (priority 2001, dated 2006).
Structures can show the parent of a compound that is named as a salt.

melting point | SMILES
166 to 168 °C | Cl.O=C(CCCCNCCc1ccccc1)c1cc2c3c(c1)CCN3C(=O)CC2
240 °C | CN(CCCCC(=O)c1ccc2[nH]c(=O)[nH]c2c1)CCc1ccccc1.Cl
169 to 180 °C (dec.) | COc1ccccc1CCN(C)CCCCC(=O)c1ccc2[nH]c(=O)[nH]c2c1.Cl
142 to 157 °C (dec.) | CN(CCCCC(=O)c1ccc2c(c1)n(C)c(=O)n2C)CCc1ccccc1.Cl
125 to 140 °C (dec.) | COc1ccccc1CCN(C)CCCCC(=O)c1ccc2c(c1)n(C)c(=O)n2C.Cl
233 °C | Cl.O=C(CCCCNCCc1ccccc1Cl)c1ccc2[nH]c(=O)[nH]c2c1
187 to 189 °C | Cl.Cn1c(=O)n(C)c2cc(C(=O)CCCCNCCc3ccccc3)ccc21
179 to 181 °C | COc1ccc(CCNCCCCC(=O)c2cc3c4c(c2)CCN4C(=O)CC3)cc1.Cl
193 to 195 °C | Cl.O=C(CCCCNCCc1ccc(Cl)cc1)c1cc2c3c(c1)CCN3C(=O)CC2
112 to 113 °C | Cl.O=C(CCCCNCCc1ccccc1O)c1cc2c3c(c1)CCN3C(=O)CC2
171 to 174 °C | Cl.O=C(CCCCNCCc1c(Cl)cccc1Cl)c1cc2c3c(c1)CCN3C(=O)CC2
154 to 156 °C | COc1cccc(CCNCCCCC(=O)c2cc3c4c(c2)CCN4C(=O)CC3)c1OC.Cl
160 to 168 °C | COc1ccc(C(=O)CCCCNCCc2ccccc2)cc1S(N)(=O)=O.Cl
139 to 141 °C | COc1ccccc1CCNCCCCC(=O)c1ccc(OC)c(S(N)(=O)=O)c1.Cl
161 to 163 °C | COc1ccc(C(=O)CCCCNCCc2ccccc2Cl)cc1S(N)(=O)=O.Cl
164 to 166 °C | COc1ccccc1CCNCCCCC(=O)c1ccc(OC)c(S(=O)(=O)NC(C)C)c1.Cl
179 to 181 °C | COc1ccc(C(=O)CCCCNCCc2ccccc2Cl)cc1S(=O)(=O)NC(C)C.Cl
160 to 170 °C | Cl.NS(=O)(=O)c1cc(C(=O)CCCCNCCc2ccccc2Cl)cc2c1OCC2
157 to 159 °C | COc1ccccc1CCNCCCCC(=O)c1cc2c(c(S(=O)(=O)NC(C)C)c1)OCC2.Cl
149 to 151 °C | CC(C)NS(=O)(=O)c1cc(C(=O)CCCCNCCc2ccccc2Cl)cc2c1OCC2.Cl
152 to 154 °C | Cl.NS(=O)(=O)c1cc(C(=O)CCCCNCCc2ccccc2)cc2c1OCCO2
166 to 168 °C | COc1ccccc1CCNCCCCC(=O)c1cc2c(c(S(N)(=O)=O)c1)OCCO2.Cl

melting point | SMILES
178 to 180 °C | Cl.NS(=O)(=O)c1cc(C(=O)CCCCNCCc2ccccc2Cl)cc2c1OCCO2
131 to 133 °C | COc1ccc(C(=O)CCCCNCCc2ccccc2)cc1NS(C)(=O)=O.Cl
129 to 131 °C | COc1ccccc1CCNCCCCC(=O)c1ccc(OC)c(NS(C)(=O)=O)c1.Cl
133 to 135 °C | COc1ccc(C(=O)CCCCNCCc2ccccc2Cl)cc1NS(C)(=O)=O.Cl
136 to 138 °C | COc1ccc(C(=O)CCCCCNCCc2ccccc2)cc1NS(C)(=O)=O.Cl
142 to 144 °C | COc1ccccc1CCNCCCCCC(=O)c1ccc(OC)c(NS(C)(=O)=O)c1.Cl
112 to 115 °C | COc1ccc(C(=O)CCCCCNCCc2ccccc2Cl)cc1NS(C)(=O)=O.Cl
143 to 145 °C | COc1ccccc1CCNCCCCC(=O)c1c[nH]c2ccccc12.Cl
149 to 151 °C | Cl.O=C(CCCCNCCc1ccccc1Cl)c1c[nH]c2ccccc12
151 to 153 °C | Cl.O=C(CCCCCNCCc1ccccc1Cl)c1c[nH]c2ccccc12
101 to 103 °C | COc1ccccc1CCNCCCCC(=O)c1cccs1.Cl
146 to 147 °C | Cl.O=C(CCCCNCCc1ccccc1Cl)c1cccs1
107 to 109 °C | COc1ccccc1CCNCCCCCC(=O)c1cccs1.Cl
149 to 151 °C | Cl.O=C(CCCCCNCCc1ccccc1Cl)c1cccs1
271 °C | Cl.O=C1CCc2cc(C(=O)[C@H]3CC[C@H](CNCCc4ccccc4Cl)CC3)cc3c2N1CC3
94 to 96 °C | COc1ccccc1CCNCCCCC(=O)c1cc2c3c(c1)CCN3C(=O)CC2.Cl
136 to 138 °C | COc1cccc(CCNCCCCCC(=O)c2cc3c4c(c2)CCN4C(=O)CC3)c1.Cl
179 to 180 °C | COc1ccc(CCNCCCCCC(=O)c2cc3c4c(c2)CCN4C(=O)CC3)cc1.Cl
172 to 174 °C | Cl.O=C(CCCCCNCCc1ccccc1Cl)c1cc2c3c(c1)CCN3C(=O)CC2
83 to 85 °C | CN(CCCCCC(=O)c1cc2c3c(c1)CCN3C(=O)CC2)CCc1ccccc1.Cl
116 to 118 °C | COc1cccc(CCN(C)CCCCCC(=O)c2cc3c4c(c2)CCN4C(=O)CC3)c1.Cl
199 to 205 °C (dec.) | Cl.O=C1NCc2cc(C(=O)CCCCNCCc3ccccc3)ccc2N1

melting point | SMILES
176 to 180 °C (dec.) | COc1ccccc1CCNCCCCC(=O)c1ccc2c(c1)CNC(=O)N2.Cl
176 to 185 °C (dec.) | Cl.O=C1NCc2cc(C(=O)CCCCNCCc3ccccc3Cl)ccc2N1
164 to 166 °C | CN(CCCCC(=O)c1ccc2c(c1)CNC(=O)N2)CCc1ccccc1.Cl
170 to 171 °C (dec.) | COc1ccccc1CCN(C)CCCCC(=O)c1ccc2c(c1)CNC(=O)N2.Cl
192 to 195 °C (dec.) | CN(CCCCC(=O)c1ccc2c(c1)CNC(=O)N2)CCc1ccccc1Cl.Cl
174 to 176 °C | CN(CCCCC(=O)c1ccc2c(c1)CN(C)C(=O)N2C)CCc1ccccc1.Cl
145 to 146 °C | COc1ccccc1CCN(C)CCCCC(=O)c1ccc2c(c1)CN(C)C(=O)N2C.Cl
187 to 188 °C | CN(CCCCC(=O)c1ccc2c(c1)CN(C)C(=O)N2C)CCc1ccccc1Cl.Cl
165 to 167 °C | COc1ccccc1CCNCCCC(=O)c1cc2c3c(c1)CCN3C(=O)CC2.Cl
97 to 100 °C | COc1cccc(CCNCCCCC(=O)c2cc3c4c(c2)CCN4C(=O)CC3)c1.Cl
181 to 183 °C | Cl.O=C(CCCCCNCc1ccccc1)c1cc2c3c(c1)CCN3C(=O)CC2
209 to 211 °C | COc1ccccc1CCN1CCC(CCC(=O)c2cc3c4c(c2)CCN4C(=O)CC3)CC1.Cl
240 to 242 °C | COc1cccc(CCN2CCC(CCC(=O)c3cc4c5c(c3)CCN5C(=O)CC4)CC2)c1.Cl
141 to 143 °C | COc1ccc(CCN2CCC(CCC(=O)c3cc4c5c(c3)CCN5C(=O)CC4)CC2)cc1.Cl
182 to 184 °C | CCOc1ccccc1CCN1CCC(CCC(=O)c2cc3c4c(c2)CCN4C(=O)CC3)CC1.Cl
220 to 222 °C | Cl.O=C(CCC1CCN(CCc2ccccc2O)CC1)c1cc2c3c(c1)CCN3C(=O)CC2
197 to 199 °C | Cc1cccc(CCN2CCC(CCC(=O)c3cc4c5c(c3)CCN5C(=O)CC4)CC2)c1.Cl
207 to 210 °C | Cl.O=C(CCC1CCN(CCc2ccccc2Cl)CC1)c1cc2c3c(c1)CCN3C(=O)CC2
204 to 206 °C | Cl.O=C(CCC1CCN(CCc2ccc(Cl)cc2)CC1)c1cc2c3c(c1)CCN3C(=O)CC2
217 to 219 °C | Cl.O=C(CCC1CCN(CCc2ccc([N+](=O)[O-])cc2)CC1)c1cc2c3c(c1)CCN3C(=O)CC2
226 to 229 °C | Cl.O=C(CCC1CCN(CCc2c(Cl)cccc2Cl)CC1)c1cc2c3c(c1)CCN3C(=O)CC2
157 to 159 °C | Cl.O=C(CCC1CCN(CCc2c[nH]c3ccccc23)CC1)c1cc2c3c(c1)CCN3C(=O)CC2

melting point | SMILES
114 to 116 °C | Cl.O=C(CCC1CCN(CC(=O)c2ccccc2)CC1)c1cc2c3c(c1)CCN3C(=O)CC2
127 to 129 °C | CCOc1ccccc1OCCN1CCC(CCC(=O)c2ccc(OC)c(NC(C)=O)c2)CC1.Cl
230 to 232 °C | Cl.O=C(CCCN1CCCc2ccccc2C1)c1cc2c3c(c1)CCN3C(=O)CC2
121 to 123 °C | COc1ccc2c(c1)CCCN(CCCC(=O)c1cc3c4c(c1)CCN4C(=O)CC3)C2.Cl
187 to 189 °C | Cl.O=C(CCCCNC1Cc2ccccc2C1)c1cc2c3c(c1)CCN3C(=O)CC2
215 to 217 °C | COc1cc2c(cc1OC)CN(CCCCC(=O)c1cc3c4c(c1)CCN4C(=O)CC3)CC2.Cl
216 to 218 °C | COc1cc2c(cc1OC)CN(CCCCCC(=O)c1cc3c4c(c1)CCN4C(=O)CC3)CC2.Cl
222 to 225 °C | Cl.O=C(CCCCCN1CCc2ccccc2CC1)c1cc2c3c(c1)CCN3C(=O)CC2
116 to 118 °C | Cl.O=C(CCCCNCCCc1ccccc1)c1cc2c3c(c1)CCN3C(=O)CC2
169 to 170 °C | COc1ccccc1CCNCCCCC(=O)c1cc2c3c(c1)CC(=O)N3CCC2.Cl
128 to 130 °C | Cl.O=C(CCCCNCCc1ccccc1Cl)c1cc2c3c(c1)CCN3C(=O)CC2
172 to 173 °C | Cl.O=C(CCCCNCCc1cccc(F)c1)c1cc2c3c(c1)CCN3C(=O)CC2
145 °C (dec.) | COc1ccc(CCNCCCCC(=O)c2cc3c4c(c2)CCN4C(=O)CC3)cc1S(N)(=O)=O.Cl
195 to 197 °C | Cl.O=C(CCCCCN1CCCc2ccccc2C1)c1cc2c3c(c1)CCN3C(=O)CC2
215 to 216 °C | Cc1ccccc1CCN1CCC(CCC(=O)c2cc3c4c(c2)CCN4C(=O)CC3)CC1.Cl
210 to 212 °C | Cl.O=C(CCC1CCN(CCc2ccccc2F)CC1)c1cc2c3c(c1)CCN3C(=O)CC2
223 to 225 °C | Cl.O=C(CCC1CCN(CCc2cccc(Cl)c2)CC1)c1cc2c3c(c1)CCN3C(=O)CC2
290 °C (dec.) | Cl.O=C(CCC1CCN(C2Cc3ccccc3C2)CC1)c1cc2c3c(c1)CCN3C(=O)CC2
173 to 175 °C | Cl.O=C(CCC1CCN(CCCc2ccccc2)CC1)c1cc2c3c(c1)CCN3C(=O)CC2
123 to 125 °C | CCOc1ccccc1OCCN1CCC(CCC(=O)c2ccc(OC)c(N)c2)CC1 (as salt: hydrochloride)
219 to 221 °C | O=C(CCC1CCN(CCc2ccccc2)CC1)c1cc2c3c(c1)CCN3C(=O)CC2 (as salt: hydrochloride)
98 to 100 °C | Cl.O=C(CCCCNC1CCc2ccccc21)c1cc2c3c(c1)CCN3C(=O)CC2 (racemic)
